Test results reported in patent publication US20040076668A1, “Controlled-release pharmaceutical formulations” (Pfizer Inc., priority 2002, published 2004).
Where two headings read alike, the source gives them in different places.

Tests used:
[1] = Dissolution as a function of dissolution media pH; assay type: physicochemical; conditions: at the lower pH (simulated gastric fluid pH 1.2); sink conditions cannot be maintained
Method: In order to determine the amount of compound (I) dissolved in simulated gastric fluid at pH 1.2, the amount remaining in the formulations was assayed and subtracted from the amount initially present. This procedure was employed because, at the lower pH, the solubility of compound (I) is lower and sink conditions cannot be maintained during dissolution. [formula] [formula]

[2] = tested on: human subjects; assay: Human in vivo oral dosage escalation studies: nausea and emesis side-effects; conditions: for dosages that could not be successfully administered due to the severity of nausea and emesis: immediate-release, human
Method: (§1) In Tables 13 and 14, standard deviation values are reported parenthetically. Furthermore, a “Yes” entry means greater than half of the subjects experienced the indicated side-effect, while a “No” entry indicates none, or less than half, of the subjects experienced the indicated side-effect.
(§2) The 3 mg dosages of compound (I) indicated in Tables 13 and 14 comprised the simultaneous administration of three 1 mg tablets of the SCT formulations of the present invention. Likewise, the 30 mg dosages of compound (I) comprised the simultaneous administration of three 10 mg tablets of the SCT formulations of the present invention.
(§3) The OPC immediate-release formulations comprising compound (I) were prepared extemporaneously by diluting powdered sodium citrate with water to a final concentration of 0.02 M and dissolving compound (I) therein with stirring. The prepared solution was then orally administered to the subject.
(§4) Analysis of such data will establish the relationship between the plasma pharmacokinetics and nausea and emesis side-effects in human subjects administered with dosages of compound (I). At Cmax values of less than 60 ng/mL, compound (I) was generally well tolerated. […] Dosages of compound (I) greater than 10 mg in the fasted state, and 30 mg in the fed state, could not be successfully administered due to the severity of the resulting nausea and emesis.
(§5) In some subjects given the 30 mg dosage in the fed state, the peak concentrations were in excess of 250 ng/mL, with the mean being 198 ng/mL. Predicated upon a Cmax threshold of 200 ng/mL for emesis, a much higher incidence of emesis would have been predicted to occur at this dosage.

[3] = as above; conditions: human, in vivo, immediate-release formulations, human
Method: as §1, §2, §3, §4, §5

[4] = concluded from the IR formulation data

## C[C@@H](Oc1ccc(CNC(=O)c2cccnc2Oc2ccc3c(c2)OCO3)c(F)c1)C(=O)O [Compound (I), (R)-2-[4-({[2-(Benzo[1,3]dioxol-5-yloxy)-pyridine-3-carbonyl]-amino}-methyl)-3-fluoro-phenoxy]-propionic Acid]
[1]
  solubility of compound (I): lower
[2]; [4]
  Cmax/Tmax ratio that will maintain a low incidence for emesis: less than 100 ng/ml/hr
  Cmax/Tmax ratio that will maintain a low incidence of nausea: less than 40 ng/ml/hr
[2]; fasted state
  dosages that could not be successfully administered due to the severity of nausea and emesis: greater than 10 mg
[2]; fed state
  dosages that could not be successfully administered due to the severity of nausea and emesis: > 30 mg
[3]; read-out: threshold for emesis (Cmax)
  Cmax: ~200 ng/mL
[3]; read-out: threshold for nausea (Cmax)
  Cmax: ~60 ng/mL
